Experimental data: US20250163064A1, “QUINAZOLINE COMPOUNDS AND USES THEREOF AS INHIBITORS OF MUTANT KRAS PROTEINS” (AMGEN INC., priority 2022, published 2025)
pIC50: −log10 of the molar value. Where two headings read alike, the source gives them in different places.

Tests used:
[1] = biological target: His-tagged KRAS G12D protein (Homo sapiens (Human), UniProt P01116, G12D); test: KRAS G12D TR-FRET Assay; assay type: binding; settings: biotinylated KRPep-2d, 10 μM GDP
Method: Compounds of interest were prepared in a dose-response titration in DMSO, and 80 nL were added via Labcyte Echo to each well of a 384-well plate (Perkin Elmer 6008280). The His-tagged KRAS G12D protein (Amgen) was diluted to 20 nM in Assay Buffer (20 mM HEPES, pH 7.4, 10 mM MgCl2, 50 mM NaCl, 0.1% BSA, 0.01% Tween-20, 10 μM GDP) and 2 μL was added to the appropriate wells of the 384-well plate. The plate was incubated for 30 minutes at rt. Biotinylated KRPep-2d substrate (Amgen) was diluted to […] in Assay Buffer and 2 AL was added to all wells and incubated for 1 hour at room temperature. Detection Reagent (0.4 nM LANCE Eu-W1024 Anti-6×His (Perkin Elmer AD0401), 5 nM streptavidin-d2 (Cisbio 610SADLA)) was prepared in Assay Buffer, then 4 AL was added to the plate and incubated for 1 h at rt. Plates were read using PerkinElmer En Vision (ex: 320 nm, em1: 665 nm, em2: 615 nm) and em1/em2 data was used to generate curve fits using a 4-parameter logistic model to calculate IC50 values.

[2] = biological target: GDP-bound KRAS protein (aa 1-169), G12D and C118A; SOS-mediated nucleotide exchange (Homo sapiens (Human), UniProt P01116, C118A/G12D); test: KRAS G12D Coupled Nucleotide Exchange Assay; assay type: biochemical; settings: 2 h compound pre-incubation, GTP, cRAF AlphaScreen
Sequence of GDP-bound KRAS protein (aa 1-169), G12D and C118A; SOS-mediated nucleotide exchange (P01116 other isoform, or with tags, fused parts or gaps G12D/C118A): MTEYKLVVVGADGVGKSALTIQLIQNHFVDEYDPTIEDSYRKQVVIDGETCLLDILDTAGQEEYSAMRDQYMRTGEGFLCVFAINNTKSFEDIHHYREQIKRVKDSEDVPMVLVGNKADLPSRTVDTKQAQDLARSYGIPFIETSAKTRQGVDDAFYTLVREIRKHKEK
Method: Purified GDP-bound KRAS protein (aa 1-169), containing both G12D and C118A amino acid substitutions and an N-terminal His-tag, was pre-incubated in assay buffer (25 mM HEPES pH 7.4, 10 mM MgCl2, and 0.01% Triton X-100) with a compound dose-response titration for 2 h. Following compound pre-incubation, purified SOS protein (aa 564-1049) and GTP (Roche 10106399001) were added to the assay wells and incubated for an additional 30 min. […] The assay plates were then read on a PerkinElmer En Vision Multilabel Reader, using AlphaScreen® technology, and data were analyzed using a 4-parameter logistic model to calculate IC50 values.

[3] = system: Phosphorylation of ERK1/2 in AsPC-1 cells; test: Phospho-ERK1/2 MSD Assay; assay type: cell-based; settings: for pIC50: read-out: 2 h p-ERK (AsPC-1 cells), IC50, AsPC-1 cells, 2 h compound treatment; for IC50: Homo sapiens, ASPC1, 2 h, read-out: 2 h p-ERK (AsPC-1 cells), IC50 (μM), AsPC-1 cells, 2 h compound treatment
Method: AsPC-1 (ATCC® CRL-1682TM) cells were cultured in RPMI 1640 Medium (ThermoFisher Scientific 11875093) containing 10% fetal bovine serum (ThermoFisher Scientific 16000044) and 1× penicillin-streptomycin-glutamine (ThermoFisher Scientific 10378016). Sixteen hours prior to compound treatment, AsPC-1 cells were seeded in 96-well cell culture plates at a density of 25,000 cells/well and incubated at 37° C., 5% CO2. A compound dose-response titration was diluted in growth media, added to appropriate wells of a cell culture plate, and then incubated at 37° C., 5% CO2 for 2 hours. Following compound treatment, cells were washed with ice-cold Dulbecco's phosphate-buffered saline, no Ca^2+ or Mg^2+ (ThermoFisher Scientific 14190144), and then lysed in RIPA buffer (50 mM Tris-HCl pH 7.5, 1% Igepal, 0.5% sodium deoxycholate, 150 mM NaCl, and 0.5% sodium dodecyl sulfate) containing protease inhibitors (Roche 4693132001) and phosphatase inhibitors (Roche 4906837001). Phosphorylation of ERK1/2 in compound-treated lysates was assayed using Phospho-ERK1/2 Whole Cell Lysate kits (Meso Scale Discovery K151DWD) according to the manufacturer's protocol. Assay plates were read on a Meso Scale Discovery Sector Imager 6000, and data were analyzed using a 4-parameter logistic model to calculate IC50 values.

Sequence of His-tagged KRAS G12D protein (P01116-2 other isoform, or with tags, fused parts or gaps G12D): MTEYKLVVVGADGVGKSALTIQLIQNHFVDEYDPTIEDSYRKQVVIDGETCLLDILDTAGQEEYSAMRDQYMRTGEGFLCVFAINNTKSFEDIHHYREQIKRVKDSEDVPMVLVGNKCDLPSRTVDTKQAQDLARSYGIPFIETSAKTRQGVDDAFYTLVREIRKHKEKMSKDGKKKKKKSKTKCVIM

SMILES | pIC50 [1] | IC50 [2] | pIC50 [3] | IC50 [3] | pIC50 [2]
CC1(O)COCCN(c2nc(OC[C@@]34CCCN3C[C@H](F)C4)nc3c(F)c(-c4ccc(F)c5sc(N)c(C#N)c45)c(Cl)cc23)C1 (single isomer, unassigned) [Example 22] | 8.70 | 2 nM | 7.89 |  | 
CC1(O)COCCN(c2nc(OC[C@@]34CCCN3C[C@H](F)C4)nc3c(F)c(-c4ccc(F)c5sc(N)c(C#N)c45)c(Cl)cc23)C1 (single isomer, unassigned) [Example 24] | 8.52 | 2 nM | 6.73 |  | 
CC1(O)CCCCN(c2nc(OC[C@@]34CCCN3C[C@H](F)C4)nc3c(F)c(-c4ccc(F)c5sc(N)c(C#N)c45)c(Cl)cc23)C1 (single isomer, unassigned) [Example 28] | 8.52 | 5 nM |  | 0.097 µM | 
N#Cc1c(N)sc2c(F)ccc(-c3c(Cl)cc4c(N5CCOCC(O)(C(F)F)C5)nc(OC[C@@]56CCCN5C[C@H](F)C6)nc4c3F)c12 (single isomer, unassigned) [Example 46] | 8.22 | 3 nM |  | 0.148 µM | 
N#Cc1c(N)sc2c(F)ccc(-c3c(Cl)cc4c(N5CCOCC(F)C5)nc(OC[C@@]56CCCN5C[C@H](F)C6)nc4c3F)c12 (single isomer, unassigned) [Example 58] | 8.52 | 1 nM |  | 0.078 µM | 
N#Cc1c(N)sc2c(F)ccc(-c3c(Cl)cc4c(N5CCCC[C@H](O)C5)nc(OC[C@@]56CCCN5C[C@H](F)C6)nc4c3F)c12 [Example 5, 2-Amino-4-(6-chloro-8-fluoro-2-(((2R,7a.S)-2-fluorotetrahydro-1H-pyrrolizin-7a(5H)-yl)methoxy)-4-((S)-3-hydroxyazepan-1-yl)quinazolin-7-yl)-7-fluorobenzo[b] thiophene-3-carbonitrile] | 8.52 |  |  | 0.097 µM | 8.40
CC1(C(N)=O)CCCN(c2nc(OC[C@@]34CCCN3C[C@H](F)C4)nc3c(F)c(-c4ccc(F)c5sc(N)c(C#N)c45)c(Cl)cc23)C1 (stereo partly drawn) [Example 11, 1-(7-(2-Amino-3-cyano-7-fluorobenzo[b]thiophen-4-yl)-6-chloro-8-fluoro-2-(((2R,7aS)-2-fluorotetrahydro-1H-pyrrolizin1 7a(5H)-yl)methoxy)quinazolin-4-yl)-3-methylpiperidine-3-carboxamide] | 8.15 |  |  | 0.677 µM | 8.15
N#Cc1c(N)sc2c(F)ccc(-c3c(Cl)cc4c(N5CCC[C@@H](S(N)(=O)=O)C5)nc(OC[C@@]56CCCN5C[C@H](F)C6)nc4c3F)c12 [Example 12, (3R)-1-(7-(2-Amino-3-cyano-7-fluorobenzo[b]thiophen-4-yl)-6-chloro-8-fluoro-2-(((2R,7aS)-2-fluorotetrahydro-1H-pyrrolizin-7a(5H)-yl)methoxy)quinazolin-4-yl)piperidine-3-sulfonamide] | 8.22 |  |  | 1.81 µM | 8.22
CS(=O)(=O)N1CC2(CCCN(c3nc(OC[C@@]45CCCN4C[C@H](F)C5)nc4c(F)c(-c5ccc(F)c6sc(N)c(C#N)c56)c(Cl)cc34)C2)C1 [Example 14] | 8.40 |  |  | 0.729 µM | 8.40
N#Cc1c(N)sc2c(F)ccc(-c3c(Cl)cc4c(N5CCCCC(S(N)(=O)=O)C5)nc(OC[C@@]56CCCN5C[C@H](F)C6)nc4c3F)c12 (stereo partly drawn) [Example 15, 1-(7-(2-Amino-3-cyano-7-fluorobenzo[b]thiophen-4-yl)-6-chloro-8-fluoro-2-(((2R,7aS)-2-fluorotetrahydro-1H-pyrrolizin-7a(5H)-yl)methoxy)quinazolin-4-yl)azepane-3-sulfonamide] | 8.52 |  |  | 0.296 µM | 8.40
N#Cc1c(N)sc2c(F)ccc(-c3c(Cl)cc4c(N5CCCC(=O)CC5)nc(OC[C@@]56CCCN5C[C@H](F)C6)nc4c3F)c12 [Example 16, 2-Amino-4-(6-chloro-8-fluoro-2-(((2R,7a.S)-2-fluorotetrahydro-1H-pyrrolizin-7a(5H)-yl)methoxy)-4-(4-oxoazepan-1-yl)quinazolin-7-yl)-7-fluorobenzo[b] thiophene-3-carbonitrile] | 8.70 |  |  | 0.076 µM | 8.52
N#Cc1c(N)sc2c(F)ccc(-c3c(Cl)cc4c(N5CCC6CCC(C5)O6)nc(OC[C@@]56CCCN5C[C@H](F)C6)nc4c3F)c12 (stereo partly drawn) [Example 21] | 8.00 |  |  | 0.532 µM | 8.10
N#Cc1c(N)sc2c(F)ccc(-c3c(Cl)cc4c(N5CCCS(=O)(=O)CC5)nc(OC[C@@]56CCCN5C[C@H](F)C6)nc4c3F)c12 [Example 25, 2-Amino-4-(6-chloro-4-(1,1-dioxido-1,4-thiazepan-4-yl)-8-fluoro-2-(((2R,7aS)-2-fluorotetrahydro-1H-pyrrolizin-7a(5H)-yl)methoxy)quinazolin-7-yl)-7-fluorobenzo[b] thiophene-3-carbonitrile] | 8.52 |  |  | 0.492 µM | 8.52

Second part, the molecule after the results:

pIC50 [1] | IC50 [2] | pIC50 [3] | IC50 [3] | pIC50 [2] | SMILES
8.70 | 3 nM | 7.49 |  |  | CCC1(O)COCCN(c2nc(OC[C@@]34CCCN3C[C@H](F)C4)nc3c(F)c(-c4ccc(F)c5sc(N)c(C#N)c45)c(Cl)cc23)C1 (single isomer, unassigned) [Example 44]
8.22 | 5 nM | 6.73 |  |  | CCC1(O)COCCN(c2nc(OC[C@@]34CCCN3C[C@H](F)C4)nc3c(F)c(-c4ccc(F)c5sc(N)c(C#N)c45)c(Cl)cc23)C1 (single isomer, unassigned) [Example 45]
8.30 | 2 nM | 7.21 |  |  | N#Cc1c(N)sc2c(F)ccc(-c3c(Cl)cc4c(N5CCOCC(F)C5)nc(OC[C@@]56CCCN5C[C@H](F)C6)nc4c3F)c12 (single isomer, unassigned) [Example 59]
8.10 | 7 nM |  | 0.292 µM |  | CC1(O)COCCN(c2nc(OCC34CCCN3CC(F)(F)C4)nc3c(F)c(-c4ccc(F)c5sc(N)c(C#N)c45)c(Cl)cc23)C1 (single isomer, unassigned) [Example 60, 2-Amino-4-(6-chloro-2-((2,2-difluorotetrahydro-1H-pyrrolizin-7a(5H)-yl)methoxy)-8-fluoro-4-(6-hydroxy-6-methyl-1,4-oxazepan-4-yl)quinazolin-7-yl)-7-fluorobenzo[b] thiophene-3-carbonitrile]
8.30 |  |  | 2.21 µM | 8.30 | N#Cc1c(N)sc2c(F)ccc(-c3c(Cl)cc4c(N5CCCC6(CC(=O)N6)C5)nc(OC[C@@]56CCCN5C[C@H](F)C6)nc4c3F)c12 (stereo partly drawn) [Example 13, 2-Amino-4-(6-chloro-8-fluoro-2-(((2R,7aS)-2-fluorotetrahydro-1H-pyrrolizin1 7a(5H)-yl)methoxy)-4-(2-oxo-1,6-diazaspiro[3.5]nonan-6-yl)quinazolin-7-yl)-7-fluorobenzo[b] thiophene-3-carbonitrile]
7.66 |  |  | 1.02 µM | 7.59 | N#Cc1c(N)sc2c(F)ccc(-c3c(Cl)cc4c(N5CCCC6(CCO6)C5)nc(OC[C@@]56CCCN5C[C@H](F)C6)nc4c3F)c12 (stereo partly drawn) [Example 20, 2-Amino-4-(6-chloro-8-fluoro-2-(((2R,7aS)-2-fluorotetrahydro-1H-pyrrolizin-7a(5H)-yl)methoxy)-4-(1-oxa-6-azaspiro[3.5]nonan-6-yl)quinazolin-7-yl)-7-fluorobenzo[b] thiophene-3-carbonitrile]
